# Test results taken from patent US20150150935A1, “[…] RECEPTOR AGONISTS FOR REDUCING PAIN AND INFLAMMATION” (CARA THERAPEUTICS, INC., priority 2012, published 2015).
# Assays:
# [1] = tested on: patients undergoing a laparoscopic hysterectomy; test: Phase 2 double-randomized placebo-controlled trial, CR845 dosed preoperatively and postoperatively, analgesic efficacy; assay type: in vivo, human
# Protocol: This trial was a phase 2 multi-center, double-randomized, double-blind, placebo-controlled study was conducted to evaluate the analgesic efficacy and safety of intravenous CR845 dosed preoperatively and postoperatively in patients undergoing a laparoscopic hysterectomy. The trial was conducted under an investigational new drug application (IND) filed with the US Food and Drug Administration (FDA).
# This phase 2 trial multi-center, double-randomized, double-blind, placebo-controlled study was conducted in 22 sites in the United States. All clinical procedures were approved by the relevant Institutional Review Board (IRB) in compliance with the applicable laws and regulations of the US. The study was initiated up to fourteen (14) days preoperatively and the in-hospital period was approximately twenty-four (24) hours for each patient and follow up was conducted within seven (7) days of discharge from the hospital.
# The aim of this clinical trial was to evaluate the analgesic efficacy and safety of intravenous (IV) CR845 dosed preoperatively and postoperatively in female patients undergoing an elective laparoscopic hysterectomy. Secondary objectives were: 1. […] To evaluate the safety and tolerability of CR845.
# This Phase 2, double-randomized, double-blind, placebo-controlled, parallel group study was conducted in approximately 200 female subjects, aged 18 to 65, across 22 US clinical sites. All subjects were administered a 15-minute IV infusion of 0.04 mg/kg CR845 or matching placebo before surgery in a 1:1 ratio. After surgery and upon reaching a pain intensity baseline level of at least 4 on a 10 cm visual analog scale (VAS), subjects were also re-randomized in a 1:1 ratio to receive a second IV infusion of either 0.04 mg/kg of CR845 or placebo. All doubly-randomized patients were thereby randomized to receive one of four possible treatment regimens: placebo-placebo, placebo-CR845, CR845-placebo, or CR845-CR845 (See FIG. 1). Pain intensity and pain relief scores were assessed up to 24 hours following the post-surgery infusion. Patients were allowed IV morphine for rescue at any point during the post-operative period, if requested.
# The main efficacy endpoints were the total morphine consumption in the first 24 hours in patients who were re-randomized in the postoperative period and the efficacy of CR845 in reducing pain intensity including time specific VAS difference; summed pain intensity differences (SPIDs); area under the curve (AUC); pain relief; and the proportion of patients that were randomized to receive preoperative CR845 with no rescue medication postoperatively. The safety endpoints included the incidence of adverse events, physical examination, vital signs, 12-lead ECG, clinical laboratory evaluations, and cumulative fluid balance.
# [2] = tested on: patients post laparoscopic surgery; test: Adverse events in subjects treated with CR845 or placebo, Phase IIb trial; assay type: in vivo, human; conditions: first 24 hours post laparoscopic surgery; all CR845 treated groups; FIG. 15
# Protocol: Data are from a Phase IIb clinical trial in which subjects were administered CR845 or placebo. Generalized pruritus was distinguished from local pruritus events and shown separately in FIG. 15. Adverse events were lower in all CR845 treated patient groups as compared with placebo treated patients.
# [3] = tested on: women after laparoscopic-assisted hysterectomy; conditions: cited from earlier work
smiles,measurement,setting,value
"CC(C)C[C@@H](NC(=O)[C@@H](Cc1ccccc1)NC(=O)[C@H](N)Cc1ccccc1)C(=O)N[C@H](CCCCN)C(=O)N1CCC(N)(C(=O)O)CC1 [CR845, D-Phe-D-Phe-D-Leu-D-Lys-[ω(4-aminopiperidine-4-carboxylic acid)]-OH]",Reduction in summed pain intensity difference (SPID) pain score versus placebo only,"[1]; CR845-CR845 (0.04 mg/kg IV before and after surgery), first 24 hours, FIG. 2",more than twice the reduction
same,Reduction in pain intensity difference (PID) pain score versus placebo only,"[1]; CR845-CR845 (before and after surgery), over 24 hours, FIG. 3",twice the reduction
same,Pain relief as judged by PID score,"[1]; CR845 before and after surgery, among four groups",highest pain intensity difference
same,Patients' overall evaluation of pain relief as excellent,"[1]; CR845 pretreatment groups (CR845-CR845, CR845-Placebo, CR845-None)",highest percentage of patients
same,Reduction in pain SPID scores,"[1]; one dose of CR845, before or after surgery, first 24 hours, FIG. 2",intermediate level of reduction
same,Reduction in pain PID scores,"[1]; one dose of CR845, before or after surgery, first 24 hours, FIG. 3",intermediate level of reduction
same,Morphine self-administered by the patients,"[1]; two doses of CR845, intervals 2-4, 4-12 and 12-24 hours post surgery, FIG. 4",least morphine
same,"Adverse events (nausea, vomiting and pruritus) compared with placebo",[2],lower
same,Reduction of morphine use versus placebo,"[3]; 0.04 mg/kg 15-minute IV infusion after surgery, first 16 hours post-infusion",32%
same,"Opioid side effects (vomiting, nausea and pruritis)","[3]; 0.04 mg/kg IV after surgery, versus placebo",significant reduction
same,"Changes in clinical lab test results, vital signs, electrocardiograms, Ramsey sedation scale",[3]; 0.04 mg/kg IV after surgery,no significant changes
same,Reduction of pain intensity,[3]; administered after surgery,effective
same,Safety and tolerability,[3]; administered after surgery,safe and well tolerated
same,Tolerability in comparison to other known kappa agonists,[3]; single intravenous dose after surgery,better tolerated
